Test results published in patent US20250326725A1, “PI4-Kinase Inhibitors and Methods of Using the Same” (The Board of Trustees of the Leland Stanford Junior …, priority 2019, published 2025).

Key:
[1] = system: HCV; assay: Anti-HCV assay (EC50); assay type: cell-based; settings: Hepatitis C virus, read-out: HCV EC50
Experimental: Anti-HCV assay: Anti-HCV assays are performed as described by Cho et al. “Identification of a class of HCV inhibitors directed against the nonstructural protein NS4B.” Sci. Transl. Med. 2011; 2(15):15ra6.

[2] = system: EV71; assay: EV71 antiviral assay (EC50); assay type: cell-based, Enterovirus 71; settings: Enterovirus A, EV71
[3] = system: EV68; assay: EV68 antiviral assay (EC50); assay type: cell-based
[4] = Cell toxicity (CC50) in HRV assay; settings: human, HRV CC50
[5] = Cell toxicity (CC50) in EV71 assay; settings: EV71 CC50
[6] = Cell toxicity (CC50) in EV68 assay; settings: EV68 CC50

Compound | EC50 [1] | EC50 [2] | EC50 [3] | CC50 [4] | CC50 [5] | CC50 [6]
COc1ccc(-c2sc(NC(C)(C)C3CCOCC3)nc2C)cc1S(=O)(=O)Nc1ccncc1C(F)(F)F [Compound S-26] | 18.1 nM | 2.3 nM | 1410 nM | 38700 nM | 88700 nM | 39100 nM
COc1ccc(-c2sc(NC(C)(C)C3CCOCC3)nc2C)cc1S(=O)(=O)Nc1cccc2[nH]cc(Br)c12 [Compound S-27] | 2.3 nM | 3.6 nM | 5.9 nM | 1410 nM | 6230 nM | 1760 nM
COc1ccc(-c2sc(NC(C)(C)C3CCOCC3)nc2C)cc1S(=O)(=O)Nc1c(C)cc(F)cc1F [Compound S-28] | 4.9 nM | 4.2 nM | 9.1 nM | 87400 nM | 100000 nM | 77600 nM
COc1ccc(-c2sc(NC(C)(C)C3CCOCC3)nc2C)cc1S(=O)(=O)Nc1nccn1C [Compound S-29] | 5.7 nM | 9.8 nM | 39.1 nM | 98700 nM | 100000 nM | 102000 nM
COc1ccc(-c2sc(NC(C)(C)C3CCOCC3)nc2C)cc1S(=O)(=O)Nc1ccc(F)cc1C(F)F [Compound S-30] | 11.2 nM | 2.2 nM | 59.2 nM | 3790 nM | 20200 nM | 6450 nM
COc1ccc(-c2sc(NC(C)(C)C3CCOCC3)nc2C)cc1S(=O)(=O)Nc1c(F)cccc1C(F)F [Compound S-31] | 0.5 nM | 0.2 nM | 0.8 nM | 52300 nM | 70600 nM | 61800 nM
COc1ccc(-c2oc(NC(C)(C)c3ccccc3)nc2C)cc1S(=O)(=O)Nc1cccnc1C [Compound S-33] | 0.1 nM | 0.1 nM | 0.7 nM | 30500 nM | 71300 nM | 5230 nM
COc1ccc(-c2sc(NC(C)(C)c3ncccn3)nc2C)cc1S(=O)(=O)Nc1c(C)cccc1F [Compound S-34] | 1 nM | 1.8 nM | 6.8 nM | 19400 nM | 100000 nM | 22100 nM
COc1ccc(-c2sc(NC(C)(C)c3ncccn3)nc2C)cc1S(=O)(=O)Nc1ccccc1C(F)(F)F [Compound S-35] | 0.2 nM | 0.1 nM | 0.6 nM | 100000 nM | 100000 nM | 100000 nM
COC(=O)N1CCC(NS(=O)(=O)c2cc(-c3sc(NC(C)(C)c4ccccc4)nc3C)ccc2OC)CC1 [Compound S-36] | 0.1 nM | 0.1 nM | 0.7 nM | 30500 nM | 71300 nM | 5230 nM
COc1ccc(-c2sc(NC(C)(C)c3ccncc3)nc2C)cc1S(=O)(=O)Nc1c(C)cccc1F [Compound S-37] | 0.1 nM | 0.1 nM | 0.5 nM | 4390 nM | 21800 nM | 3880 nM
COc1ccc(-c2sc(NC(C)(C)C3CCOCC3)nc2C)cc1S(=O)(=O)Nc1ccc(NC(C)=O)cc1 [Compound S-40] | 0.2 nM | 0.0751 nM | 1.2 nM | 40800 nM | 78100 nM | 42700 nM
COc1ccc(-c2sc(NC(C)(C)c3ccccc3)nc2C)cc1S(=O)(=O)NC1CCNCC1 [Compound S-41] | 9.9 nM | 0.9 nM | 58.5 nM | 1900 nM | 776 nM | 2090 nM
COc1ccc(-c2sc(NC(C)(C)c3ccccc3)nc2C)cc1S(=O)(=O)NC1CCN(C=O)CC1 [Compound S-43] | 2.1 nM | 0.3 nM | 5.1 nM | 100000 nM | 17500 nM | 100000 nM
COc1ccc(-c2sc(NC(C)(C)c3ccccc3)nc2C)cc1S(=O)(=O)Nc1ccncc1C(F)(F)F [Compound S-44] | 30.6 nM | 3.5 nM | 1990 nM | 32100 nM | 18200 nM | 33500 nM
COc1ccc(-c2oc(NC(C)(C)c3ccccc3)nc2C)cc1S(=O)(=O)Nc1ccncc1C [Compound S-46] | 0.9 nM | 0.4 nM | 2.6 nM | 52400 nM | 24500 nM | 44500 nM
COc1ccc(-c2oc(NC(C)(C)c3ccccn3)nc2C)cc1S(=O)(=O)Nc1ccncc1C [Compound S-47] | 9.6 nM | 1.2 nM | 27.6 nM | 49500 nM | 21100 nM | 49100 nM
COc1ccc(-c2oc(NC(C)(C)c3cccnc3)nc2C)cc1S(=O)(=O)Nc1ccncc1C [Compound S-48] | 74.5 nM | 4.5 nM | 217 nM | 100000 nM | 100000 nM | 100000 nM
